According to US11938135B2, “Compositions and methods for treating vascular Ehlers Danlos syndrome and associated disorders” (The Johns Hopkins University, priority 2018, dated 2024):
Entries after “also recorded” stand apart in the source; their conditions may differ.

How the values were obtained:
[1] = system: vEDS mice; test: Survival of drug-treated vEDS mice (death due to aortic dissection); type: in vivo, mouse; settings: for protection from dissection or death: vEDS mice, dose not stated (early data); for survival rate: after about 30 days (1 month) of treatment
Method: Novel knock-in glycine substitution (Col3a1 G209S/+ and Col3a1 G938D/+) vEDS mice were created using CRISPR/Cas9.
To introduce each mutation, 3 guide RNAs (tracrRNA+crRNA) were designed to target the DNA regions flanking the intended mutation site. A DNA oligo repair template (ssDNA oligo) was also designed that included homologous sequences upstream and downstream of the target region, as well as the intended mutation. Pronuclear injection of one-cell C57BL/6J embryos was performed by the JHU Transgenic Core using standard microinjection techniques using a mix of Cas9 protein, tracrRNA, crRNA, and ssDNA oligo diluted in RNAse free injection buffer. Injected embryos were transferred into the oviducts of pseudopregnant ICR females using established techniques. Sanger sequencing of the site was utilized to confirm introduction of the mutation, and the mice were backcrossed for at least 4 generations to eliminate off-target effects. For the G209S mouse, the mutation introduced was c.625_626 GG>TC, corresponding to p.Gly210Ser in humans. For the G938D mouse, the mutation introduced was c.2813G>A, corresponding to […] in humans. The Wild-type Human Col3a1 mRNA NCBI Accession No: NM_000090.3; the wild-type Mouse Col3a1 mRNA NCBI Accession No.: NM_009930.2.
Pharmacological ERK antagonists were tested to support the role of ERK activation in the pathogenesis of vEDS and as a method to identify therapeutic strategies for vEDS. Mice were treated with cobimetinib [GDC-0973, RO5514041] (2 mg/kg/day), an FDA-approved inhibitor of MEK, the kinase that activates ERK^8. It was hypothesized that if ERK activation was truly driving disease risk, ERK inhibition would rescue the risk of death from aortic dissection.
Next, further studies were performed to test agents that inhibit PKC activation. Mice were treated with ruboxistaurin [LY 333531] […] It was hypothesized that if ERK activation, and thereby disease risk, was driven by PLC/IP3/PKC activation, a pharmacologic PKC inhibitor would also rescue the risk of death from aortic dissection.
Further studies were performed to test other medications that inhibit this signaling cascade.

[2] = Blood pressure / hemodynamic stress in treated vEDS mice; type: in vivo, mouse; settings: for hemodynamic stress: dose not stated; for effect on blood pressure: doses as in the survival studies
[3] = system: MFS mice; settings: cited from earlier work
[4] = system: vEDS mice, first 30 days postpartum; test: Postpartum survival of lactating vEDS mice (pregnancy/breastfeeding model); type: in vivo, mouse
Excerpt: Previously, it was shown that pregnancy-associated aortic dissection is largely driven by lactation-associated oxytocin release and oxytocin-induced ERK signaling in MFS mouse aortas^11. Thus, oxytocin-induced ERK signaling was used as a method to test whether activation of the PLC/IP3/PKC/ERK axis would worsen the risk of aortic dissection.
Oxytocin-induced ERK signaling was used as a method to test the hypothesis that activation of the PLC/IP3/PKC/ERK axis would worsen the risk of aortic dissection.

[5] = system: Col3a1^G209S/+ mice; test: Risk of aortic dissection in Col3a1 G209S/+ mice; type: in vivo, mouse; settings: celiprolol; Col3a1 G209S/+ mutation
Excerpt: Others have proposed^5-8 that vEDS phenotypes are a result of chronically “weak” tissue and therefore propose that decreasing blood pressure with beta-adrenergic receptor blockers should decrease the risk of aortic rupture in these patients. […] Since this was not common to all β antagonists, this observation could be driven by celiprolol's β2 agonism activity.

[6] = system: patients with vEDS; settings: small human study; cited from earlier work
[7] = system: 129 MFS mice; test: Aortic root growth in Marfan syndrome mice; type: in vivo, mouse; settings: ruboxistaurin 10 mg/kg/d, p=2E-4
Excerpt: In examples, different PKC-β inhibitors are used for the treatment of Marfan Syndrome. For example, treatment of Marfan Syndrome may include administration of ruboxistaurin. […] In other examples, treatment of Marfan Syndrome includes administration of enzastaurin or sotrastaurin.

CCCCc1nc(Cl)c(CO)n1Cc1ccc(-c2ccccc2-c2nn[nH]n2)cc1 [losartan]
impact on survival ([1]; losartan 60 mg/kg/d): no impact on survival
protection from dissection or death [1]: no evidence of protection from dissection or death
hemodynamic stress [2]: achieved the predicted lowering of hemodynamic stress
aortic disease in MFS mice ([3]; MFS mice, literature refs 3-6): can suppress aortic disease
protection in mouse models of MFS or LDS ([3]; mouse models of MFS or LDS): afford dramatic protection

O=C(c1ccc(F)c(F)c1Nc1ccc(I)cc1F)N1CC(O)([C@@H]2CCCCN2)C1 [cobimetinib]
survival ([1]; cobimetinib 2 mg/kg/day, after 45 days of treatment, 55% survival with no treatment): 94%
effect on blood pressure [2]: Neither cobimetinib nor ruboxistaurin had an effect on blood pressure

CN1CCN(c2nc(C3=C(c4c[nH]c5ccccc45)C(=O)NC3=O)c3ccccc3n2)CC1 [sotrastaurin]
survival rate ([1]; sotrastaurin about 30 mg/kg/day orally): about 100%

COC(=O)c1ccc2c(c1)NC(=O)/C2=C(\Nc1ccc(N(C)C(=O)CN2CCN(C)CC2)cc1)c1ccccc1 [nintedanib]
impact on survival ([1]; nintedanib 50 mg/kg/d): no impact on survival

CC(=O)Nc1cccc(-n2c(=O)n(C3CC3)c(=O)c3c(Nc4ccc(I)cc4F)n(C)c(=O)c(C)c32)c1 [trametinib]
survival postpartum ([4]; trametinib 1 mg/kg/day, first 30 days postpartum, 60% lethality untreated): 95%

CCN(CC)C(=O)Nc1ccc(OCC(O)CNC(C)(C)C)c(C(C)=O)c1 (stereo not drawn) [celiprolol]
improvement in survival ([1]; celiprolol 200 mg/kg/d): none of these manipulations lead to an improvement in survival
risk of aortic dissection ([1]; celiprolol 200 mg/kg/d, vEDS mouse models): accelerated the risk of aortic dissection
protection from dissection or death [1]: significant acceleration of dissection and death
hemodynamic stress [2]: achieved the predicted lowering of hemodynamic stress
effect on blood pressure [2]: decreases in blood pressure
risk of aortic dissection [5]: increased risk of aortic dissection
adverse events in patients with vEDS [6]: potential to delay adverse events

CC(=O)S[C@@H]1CC2=CC(=O)CC[C@]2(C)[C@H]2CC[C@@]3(C)[C@@H](CC[C@@]34CCC(=O)O4)[C@H]12 [spironolactone]
survival ([1]; spironolactone alone 100 mg/kg/d): ~80%

Cn1cc(C2=C(c3cn(C4CCN(Cc5ccccn5)CC4)c4ccccc34)C(=O)NC2=O)c2ccccc21 [enzastaurin, 3-(1-Methylindol-3-yl)-4-[1-[1-(pyridin-2-ylmethyl)piperidin-4-yl]indol-3-yl]pyrrole-2,5-dione]
survival ([1]; enzastaurin 60 mg/kg/d, after 40 days of treatment, 50% of untreated vEDS mice, p=0.0305): 80%
survival rate ([1]; enzastaurin about 30 mg/kg/day orally): about 100%

NNc1nncc2ccccc12 [hydralazine]
survival ([1]; hydralazine 32 mg/kg/d, at 45 days of age, the median survival for an untreated vEDS mouse): 98%
survival in male mice ([1]; hydralazine-only (32 mg/kg/d) treated male mice): 24%
survival postpartum ([4]; hydralazine 16 mg/kg/day, first 30 days postpartum, 60% lethality untreated): 95%

CC(C)NCC(O)COc1cccc2ccccc12 (stereo not drawn) [propranolol]
improvement in survival ([1]; propranolol 80 mg/kg/d): none of these manipulations lead to an improvement in survival
survival postpartum ([4]; propranolol, after 30 days postpartum, vs. 50% survival): 46%
effect on postpartum survival ([4]; propranolol, first 30 days postpartum, mice still lactating): does not improve survival; also recorded: did not affect survival
effect on blood pressure [2]: lowers blood pressure; also recorded: decreases in blood pressure

COc1ccccc1Oc1c(NS(=O)(=O)c2ccc(C(C)(C)C)cc2)nc(-c2ncccn2)nc1OCCO [bosentan]
survival ([1]; bosentan 100 mg/kg/d, after 40 days of treatment, 50% survival in untreated vEDS mice, p=0.0298): 80%

CCOC(=O)N[C@@H]1CC[C@@H]2[C@@H](C1)C[C@H]1C(=O)O[C@H](C)[C@H]1[C@H]2/C=C/c1ccc(-c2cccc(F)c2)cn1 [vorapraxar]
impact on survival ([1]; vorapraxar 1 mg/kg/d): no impact on survival

CC(O)(CS(=O)(=O)c1ccc(F)cc1)C(=O)Nc1ccc(C#N)c(C(F)(F)F)c1 (stereo not drawn) [bicalutamide]
survival in male mice ([1]; bicalutamide alone, male mice): ~80%

CN(C)C[C@@H]1CCn2cc(c3ccccc32)C2=C(C(=O)NC2=O)c2cn(c3ccccc23)CCO1 [ruboxistaurin, (9S)-9-[(dimethylamino)methyl]-6,7,10,11-tetrahydro-9H,18H-5,21:12,17-di(metheno)dibenzo[e,k]pyrrolo[3,4-h][1,4,13]oxadiazacyclohexadecine-18,20-dione]
survival ([1]; ruboxistaurin 10 mg/kg/day, after 39 days of treatment, 55% survival with no treatment): 100%
effect on blood pressure [2]: Neither cobimetinib nor ruboxistaurin had an effect on blood pressure
aortic root growth [7]: reduces aortic root growth; also recorded: rescued the aortic root growth

CC(C)NCC(O)COc1ccc(CC(N)=O)cc1 (stereo not drawn) [atenolol]
improvement in survival ([1]; atenolol 120 mg/kg/d): none of these manipulations lead to an improvement in survival
effect on blood pressure [2]: decreases in blood pressure

des Gly-NH2,d(CH2)5[D-Tyr2,Thr4]OVT
survival postpartum ([4]; oxytocin receptor antagonist, first 30 days postpartum, mice still lactating): 95%
